Assay [1] deals with JNK1 (Homo sapiens, UniProt P45983). Put plainly: JNK1 inhibition. In kind it is biochemical. Conditions: read-out: inhibition (IC50) with regard to JNK1.
Assay [2] relates to IL-2 release by (PMA+Ionomycin)-stimulated Jurkat cells. The assay is described as follows: IL-2 release assay (IL-2 ELISA). In kind it is cell-based. Conditions: Homo sapiens; PMA + Ionomycine stimulated Jurkat cells. How it is done: The Ability of the Compounds According to Formula I to Modulate the Inflammatory Response by Inhibiting the Release of IL-2 was Assessed Using the Following Protocol
JNK pathway activation triggers the production of inflammatory cytokines such as IL-2. JNK can be activated by external stimuli such as PMA and Ionomycine and IL-2 production can be measured via an IL-2 ELISA test. Comparative measurements with and without the compounds of the invention according to the following protocol measure the ability of the compounds to prevent to stress-mediated IL-2 release.
Jurkat cells, a human T cell leukemia cell line (American Type Culture Collection # TIB 152) were cultured in RPMI 1640 medium (Gibco, BRL) supplemented with 10% of […] fetal calf serum (FCS), Glutamine and Penstrep. The cell suspension in the medium is diluted to give 2.10^6 cells/mL. The cells were plated (2.10^5 cells/well) on a 96-well plate containing different concentrations of a compound according to formula I (final concentration of compounds, 10, 3, 1, 0.3, 0.1 μM). This mixture is incubated 30 minutes at 37° C. in a humidified CO2 atmosphere. Cells were then treated with 10 μl PMA (Phorbolmyristate-13 Acetate-12)+Ionomycine (0.1 μM and 1 μM final concentration) in all wells except negative control. In wells without compounds, 10 μl of RPMI 2% DMSO (=0.1% final) is added. Cells are incubated 24 hours at 37° C. and then the supernatant harvested (freeze at −20° C. if not used the same day) prior to performing IL-2 ELISA test on the supernatant.
IL-2 release into the medium by (PMA+Iononomycin)-stimulated Jurkat cells, in presence or absence of test compounds may be assayed by ELISA. Following the procedure described below.
Monoclonal anti-human IL-2 antibody (MAB602) (capture), biotinylated anti-human IL-2 antibody (BAF202) (detection) and recombinant human IL-2 (202-IL-010) (standard) from From R&D Systems are used. […]
• 1. […] Optical density is measured using a microtiter plate reader set to 450 nm with correction at 570 nm.
On the technique in general: An ELISA detects its analyte on a solid surface through an enzyme-linked reagent.

A value given as a limit tells only on which side of the number the result lay.

A word on the IC50: it is the point on the concentration scale where inhibition reaches its midpoint.

Chain of JNK1 (P45983 whole entry, species assumed): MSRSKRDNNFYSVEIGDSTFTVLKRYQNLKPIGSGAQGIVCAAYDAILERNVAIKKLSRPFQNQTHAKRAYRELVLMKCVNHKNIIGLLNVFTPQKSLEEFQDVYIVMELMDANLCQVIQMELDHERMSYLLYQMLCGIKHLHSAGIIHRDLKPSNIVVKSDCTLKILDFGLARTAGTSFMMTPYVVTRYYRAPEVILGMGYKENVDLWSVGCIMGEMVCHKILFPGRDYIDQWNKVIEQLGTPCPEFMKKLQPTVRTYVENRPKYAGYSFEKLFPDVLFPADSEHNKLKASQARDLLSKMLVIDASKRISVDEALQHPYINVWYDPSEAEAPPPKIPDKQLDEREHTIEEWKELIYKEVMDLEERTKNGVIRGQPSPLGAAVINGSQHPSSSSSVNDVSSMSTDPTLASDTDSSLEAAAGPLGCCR

`COc1cccc(C(=O)NCc2ccc(S(=O)(=O)N3CCC(NCc4ccc(C(F)(F)F)cc4)CC3)s2)c1` [Example 1, 3-Methoxy-N-{[5-({4-[(4-trifluoromethylbenzyl)amino]piperidin-1-yl}sulfonyl)thien-2-yl]methyl}benzamide]: the 50% inhibitory concentration (IC50) in assay [1] was 0.1 to 0.7 µM; in assay [2], less than 0.8 µM.

Source of the values: patent publication US7544700B2, “Pharmaceutically active sulfonamide derivatives bearing both lipophilic and ionisable moieties as inhibitors of protein JunKinases” (Laboratoires Serono SA, priority 2000, dated 2009).
